pIC50: −log10 of the molar value.
Assays:
BRD4 = BRD4 (Homo sapiens (Human), UniProt O60885); assay: TR-FRET in-vitro binding assay for BRD4; details: 45 nM His-Brd4(44-477), acetyl-histone H4 (AcK 5, 8, 12, 16) peptide
Procedure: (§1) TR-FRET In-Vitro Binding Assays for BRD2, BRD3, and BRD4: All assays were performed in 384-well microtiter plates. […] Liquid handling and incubation steps were done on an Innovadyne Nanodrop Express equipped with a robotic arm (Thermo CatX, Perkin Elmer/Caliper Twister II) and an incubator (Liconic STX40, Thermo Cytomat 2C450). The assay plates were prepared by addition of 50 nl per well of compound solution in 90% DMSO HummingBird nanodispenser (Zinsser Analytic). […] Reactions were incubated at 30° C. for 35 minutes. […] After 35 minutes incubation at 30° C., plates were measured in a Perkin Elmer EnVision multilabel reader. […] The stock solutions were stored at […] if not used immediately. For the test procedure the vials were defrosted and identified by a scanner whereby a working sheet was generated that guided the subsequent working steps. Compound dilutions were made in 96 well plates. This format enabled the assay of maximally […] at 8 concentrations (single points) including 4 reference compounds, if desired (known BET inhibitors from the prior art, for this and other assays of the type disclosed herein). The dilution protocol included the production of “pre-dilution plates”, “master plates” and “assay plates”. Polypropylene 96-well plates were used as pre-dilution plates. […] All dilution steps were done on a HamiltonSTAR robot. […] Identical “assay plates” were then prepared by pipetting 50 nL each of compound dilutions of the “master plates” into 384-well “assay plates” by means of a HummingBird 384-channel dispenser. These plates were used directly for the assay which was performed in a total volume of 13.55 μL.

BRD3 = BRD3 (Homo sapiens (Human), UniProt Q15059); assay: TR-FRET in-vitro binding assay for BRD3; details: 45 nM His-Brd3(20-477), acetyl-histone H4 (AcK 5, 8, 12, 16) peptide
Sequence of BRD3 (Q15059 20-477): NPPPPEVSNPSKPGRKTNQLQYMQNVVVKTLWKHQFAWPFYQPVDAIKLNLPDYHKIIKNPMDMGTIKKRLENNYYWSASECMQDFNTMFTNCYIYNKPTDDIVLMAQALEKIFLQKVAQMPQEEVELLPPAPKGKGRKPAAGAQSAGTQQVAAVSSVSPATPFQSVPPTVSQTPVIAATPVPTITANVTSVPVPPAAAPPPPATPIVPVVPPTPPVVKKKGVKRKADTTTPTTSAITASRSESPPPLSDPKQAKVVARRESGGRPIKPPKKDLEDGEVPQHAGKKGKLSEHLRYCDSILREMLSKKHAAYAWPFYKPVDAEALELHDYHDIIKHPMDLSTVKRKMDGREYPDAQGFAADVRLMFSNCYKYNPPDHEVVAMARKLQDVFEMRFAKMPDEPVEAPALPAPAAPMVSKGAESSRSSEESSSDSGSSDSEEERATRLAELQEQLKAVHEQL
Procedure: as §1

CREBBP = CREBBP (Homo sapiens (Human), UniProt Q92793); assay: AlphaScreen in-vitro binding assay for CREBBP; details: 324 nM His-CREBBP (1081-1197), acetyl-histone H4 (AcK 5, 8, 12) peptide
Sequence of CREBBP (Q92793 1081-1197): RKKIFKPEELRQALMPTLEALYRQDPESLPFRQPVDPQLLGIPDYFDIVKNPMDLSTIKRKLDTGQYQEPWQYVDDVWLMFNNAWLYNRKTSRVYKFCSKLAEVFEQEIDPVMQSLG
Procedure: AlphaScreen In-Vitro Binding Assay for CREBBP
In order to assess bromodomain selectivity, we set up a binding assay using the bromodomain encoded by the CREBBP gene. […] The assay was started by stepwise addition of 4.5 μL per well of bromo domain protein (50 mM HEPES, pH 7.5, 0.005% Tween20, 0.02% BSA, 150 mM NaCl, 324 nM His-CREBBP (1081-1197) (custom production at Viva Biotech Ltd.)) and 4.5 μL per well of peptide solution (50 mM HEPES, pH 7.5, 0.005% Tween20, 0.02% BSA, 150 mM NaCl, 120 nM acetyl-histone H4 (AcK 5, 8, 12) (Biosyntan GmbH)). Reactions were incubated at 30° C. for 35 minutes. Subsequently 4.5 μL per well detection mix (50 mM HEPES, pH 7.5, 0.005% Tween20, 0.02% BSA, 150 mM NaCl, 45 μg/ml Ni-chelate acceptor beads, 45 μg/mL streptavidin-donor beads) (Perkin Elmer)) were added. After 60 minutes incubation at room temperature, plates were measured in a Perkin Elmer EnVision multilabel reader. IC50 values were determined from percent inhibition values at different compound concentrations by non-linear regression analysis.
Test compounds were dissolved in DMSO (10 mM) and transferred into 1.4 mL flat bottom or V-shaped Matrix tubes carrying a unique 2D matrix. The stock solutions were stored at […] if not used immediately. For the test procedure the vials were defrosted and identified by a scanner whereby a working sheet was generated that guided the subsequent working steps. Compound dilutions were made in 96 well plates. This format enabled the assay of maximally […] at 8 concentrations (single points) including 4 reference compounds, if desired (known BET inhibitors from the prior art, for this and other assays of the type disclosed herein). The dilution protocol included the production of “pre-dilution plates”, “master plates” and “assay plates”.
Polypropylene 96-well plates were used as pre-dilution plates. A total of 4 pre-dilution plates were prepared including 10 test compounds each on the plate positions A1-A10, one standard compound at A11 and one DMSO control at […]. All dilution steps were done on a HamiltonSTAR robot.
30 μL of individual compound dilutions including standard compound and controls of the 4 “pre-dilution plates” were transferred into a 384-well “master plate” including the following concentrations 10000, […], 1000, 300, 100, 30, 10 and 3 μM, respectively in 90% of DMSO.
Identical “assay plates” were then prepared by pipetting 50 nL each of compound dilutions of the “master plates” into 384-well “assay plates” by means of a HummingBird 384-channel dispenser. These plates were used directly for the assay which was performed in a total volume of 13.55 μL.

MV-4-11 = assay: Cell growth inhibition assay (CellTiter-Glo), MV-4-11; format: cell-based, human; details: MV-4-11 cells, 4 days; for GI50: Homo sapiens, MV4-11, 96 h, half-maximal growth inhibition; for MV-4-11 TGI: total growth inhibition
Procedure: (§2) Cell Growth Inhibition Assay
(§3) The human leukemia cell lines MV-4-11, THP-1 and K-562 were employed to characterize the effect of BET inhibitors on cellular proliferation and viability. Cells were obtained from the American Type Culture Collection (ATCC) and cultured at 37° C. in a humidified 5% CO2 incubator in the following media: MV-4-11: DMEM high glucose (Animed #1-26F01-I), 10% FCS (Animed #2-01F26-I), 4 mM L-Glutamine (Animed #5-10K50), 1 mM Sodium Pyruvate (Animed # G03625P), 1× Penicillin-Streptomycin (Animed # F12478P); K-562: Iscove's MEM (Animed #1-28F16-I), 10% FCS (Animed #2-01F26-I), 4 mM L-Glutamine (Animed #5-10K50), 1× Penicillin-Streptomycin (Animed # F12478P); THP-1: RPMI-1640 (Animed #1-41F01-I), 10% FCS (Animed #2-01F26-I), 2 mM L-Glutamine (Animed #5-10K50), 10 mM HEPES (Animed #5-31F100), 1 mM Sodium Pyruvate (Animed # G03625P), 1× Penicillin-Streptomycin (Animed # F12478P). The AML lines MV-4-11 and THP-1 are very sensitive to BET inhibitors and show massive cell death upon BET inhibition (Zuber et al., Nature, 478 (2011), 524-8). Compound-mediated suppression of cell proliferation/viability was assessed by quantification of cellular ATP levels using the CellTiter-Glo (CTG) reagent (Promega). Briefly, cells were seeded in 20 μl fresh medium into 384-well plates, followed by addition of 5 μL medium containing compound dilutions at 5-fold their final intended concentration. Dose-response effects were assessed by 3-fold serial dilutions of the test compound, starting at 10 μM. Following incubation of the cells for 4 days at 37° C. and 5% CO2, the effect of inhibitors on cell viability was quantified following addition of 20 μl CTG and luminescence quantification (integration time: 100 ms) as per vendor manual, using a correspondingly equipped Tecan M200 multi-mode platereader (TECAN, Switzerland). For data analysis, the assay background value determined in wells containing medium, but no cells, was subtracted from all data points. To enable differentiation of cytotoxic from cytostatic compounds, the number of viable cells is assessed relative to that observed at the time of compound addition using a separate cell plate (day 0). The effect of a particular test compound concentration on cell proliferation/viability is expressed as percentage of the background- and day 0-corrected luminescence reading obtained for cells treated with vehicle only (DMSO, 0.1% final concentration), which is set as 100%, whereas that luminescence reading for wells containing medium is set as −100%. Compound concentrations leading to half-maximal (IC50) and total growth inhibition (TGI) were determined using standard four parameter curve fitting.

THP-1 = assay: Cell growth inhibition assay (CellTiter-Glo), THP-1; format: cell-based, human; details: THP-1 cells, 4 days; for GI50: Homo sapiens, 96 h, half-maximal growth inhibition; for THP-1 TGI: total growth inhibition
Procedure: as §2, §3

K-562 = assay: Cell growth inhibition assay (CellTiter-Glo), K-562; format: cell-based, human; details: K-562 cells, 4 days; for GI50: Homo sapiens, K562, 96 h, half-maximal growth inhibition; for K-562 TGI: total growth inhibition
Procedure: as §2, §3

Row | Structure (SMILES) | pIC50 (BRD4) | pIC50 (BRD3) | pIC50 (CREBBP) | GI50 (MV-4-11) | GI50 (THP-1) | GI50 (K-562) | MV-4-11 TGI (MV-4-11) | THP-1 TGI (THP-1) | K-562 TGI (K-562)
1 | CNC(=O)c1cn(C)c2c1C(=O)N(c1cc(C)c3nnc(C(F)F)n3c1)C2c1ccc(Cl)cc1 (stereo not drawn) [Example 132, 6-(4-chlorophenyl)-5-(3-(difluoromethyl)-8-methyl-[1,2,4]triazolo[4,3-a]pyridin-6-yl)-N,1-dimethyl-4-oxo-1,4,5,6-tetrahydropyrrolo[3,4-b]pyrrole-3-carboxamide] | 7.80 | 7.64 | 4.85 | 9.57 nM | 10.1 nM | 58.6 nM | 23.15 nM | 26 nM | >10000 nM
2 | Cc1cc(N2C(=O)c3c(NC(=O)CCN(C)C)cn(C)c3C2c2ccc(Cl)cc2)cc2c1nnn2C (stereo not drawn) [Example 115, N-(6-(4-chlorophenyl)-5-(1,4-dimethyl-1H-benzo[d][1,2,3]triazol-6-yl)-1-methyl-4-oxo-1,4,5,6-tetrahydropyrrolo[3,4-b]pyrrol-3-yl)-3-(dimethylamino)propanamide] | 7.59 | 7.44 | 5.41 | 16.1 nM | 29.3 nM | 157 nM | 25.7 nM | 79 nM | >10000 nM
3 | CNC(=O)c1cn(C)c2c1C(=O)N(c1cc(C)c3nnc(C(F)F)n3n1)C2c1ccc(Cl)cc1 (stereo not drawn) [Example 108, 6-(4-chlorophenyl)-5-(3-(difluoromethyl)-8-methyl-[1,2,4]triazolo[4,3-b]pyridazin-6-yl)-N,1-dimethyl-4-oxo-1,4,5,6-tetrahydropyrrolo[3,4-b]pyrrole-3-carboxamide] | 7.80 | 7.72 | < 4.43 | 43.2 nM | 32.3 nM | 322 nM | 78.35 nM | 72.75 nM | >10000 nM

Now from value to molecule, other results behind:

Row | pIC50 (BRD4) | pIC50 (BRD3) | pIC50 (CREBBP) | GI50 (MV-4-11) | GI50 (THP-1) | GI50 (K-562) | Structure (SMILES) | MV-4-11 TGI (MV-4-11) | THP-1 TGI (THP-1) | K-562 TGI (K-562)
4 | > 7.96 | 7.72 | < 4.43 | 13.2 nM | 10.7 nM | 113 nM | CNC(=O)Nc1cn(C)c2c1C(=O)N(c1cc(C)c3nnc(C(F)F)n3n1)C2c1ccc(Cl)cc1 (stereo not drawn) [Example 111, 1-(6-(4-chlorophenyl)-5-(3-(difluoromethyl)-8-methyl-[1,2,4]triazolo[4,3-b]pyridazin-6-yl)-1-methyl-4-oxo-1,4,5,6-tetrahydropyrrolo[3,4-b]pyrrol-3-yl)-3-methylurea] | 31.2 nM | 30.1 nM | >10000 nM
5 | 7.82 | 7.82 | 4.86 | 12.1 nM | 15 nM | 115 nM | CCOC(=O)n1cc(C2CC2)c2c1C(c1ccc(Cl)cc1)N(c1cc(C)c3nnc(C)n3c1)C2=O (stereo not drawn) [Example 125, Ethyl 6-(4-chlorophenyl)-3-cyclopropyl-5-(3,8-dimethyl-[1,2,4]triazolo[4,3-a]pyridin-6-yl)-4-oxo-5,6-dihydropyrrolo[3,4-b]pyrrole-1(4H)-carboxylate] | 19.25 nM | 28.4 nM | >10000 nM
6 | 7.48 | 7.57 | < 4.43 | 9.21 nM | 9.76 nM | 67.1 nM | Cc1cc(N2C(=O)c3ccn(C)c3C2c2ccc(Cl)cc2)nn2c(C)nnc12 (stereo not drawn) [Example 131, 6-(4-chlorophenyl)-5-(3,8-dimethyl-[1,2,4]triazolo[4,3-b]pyridazin-6-yl)-1-methyl-5,6-dihydropyrrolo[3,4-b]pyrrol-4(1H)-one] | 21.5 nM | 30.25 nM | >10000 nM
7 | 7.27 | 7.24 | 5.09 | 96.3 nM | 188 nM | 492 nM | Cc1cn(CC(=O)N(C)C)c2c1C(=O)N(c1cc(C)c3nnc(C)n3c1)C2c1ccc(Cl)cc1 (stereo not drawn) [Example 129, 2-(6-(4-chlorophenyl)-5-(3,8-dimethyl-[1,2,4]triazolo[4,3-a]pyridin-6-yl)-3-methyl-4-oxo-5,6-dihydropyrrolo[3,4-b]pyrrol-1(4H)-yl)-N,N-dimethylacetamide] | 143 nM | 439.5 nM | >10000 nM
